Each compound was assayed against T1, Neuropeptide Y receptor type 5 (Homo sapiens, UniProt Q15761) (assay: Inhibition of 125 I-PYY binding to human Neuropeptide Y receptor type 5).
T1 sequence (Q15761 whole entry): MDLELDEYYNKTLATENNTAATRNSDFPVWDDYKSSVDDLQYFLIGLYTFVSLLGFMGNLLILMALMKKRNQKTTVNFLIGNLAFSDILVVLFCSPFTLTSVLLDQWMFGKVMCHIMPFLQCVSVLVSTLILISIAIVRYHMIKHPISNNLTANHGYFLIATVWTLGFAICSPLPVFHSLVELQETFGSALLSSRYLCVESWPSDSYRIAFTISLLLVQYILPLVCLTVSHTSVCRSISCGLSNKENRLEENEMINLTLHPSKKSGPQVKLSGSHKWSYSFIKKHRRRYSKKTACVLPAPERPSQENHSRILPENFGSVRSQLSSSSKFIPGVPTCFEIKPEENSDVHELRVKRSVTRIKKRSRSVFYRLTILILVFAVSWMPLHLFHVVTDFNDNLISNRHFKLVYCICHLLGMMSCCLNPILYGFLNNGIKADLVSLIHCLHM

Compared with `COc1ccc2c(c1)CC(NCC1CCN(C(=O)CNS(=O)(=O)c3cccc4ccccc34)CC1)CCC2` (stereo not drawn), `COc1ccc2c(c1)CC(O)(CNCC1CCN(CCNS(=O)(=O)c3cccc4ccccc34)CC1)CCC2` (stereo not drawn) is 15-fold higher in IC50: 3.7 nM for the first, 56 nM for the second.

First: COc1ccc2c(c1)C(O)(CNCCC1CCN(CCNS(=O)(=O)c3cccc4ccccc34)CC1)CCC2 (stereo not drawn)
Second: COc1ccc2c(c1)C(O)(CNCC1CCN(CCNS(=O)(=O)c3cccc4ccccc34)CC1)CCC2 (stereo not drawn)
The IC50 of the first is 44-fold higher: 24 nM for the first, 0.54 nM for the second.

Going from `COc1ccc2c(c1)CC(NCC1CCN(C(=O)Cn3c(=O)sc4ccc(Cl)cc43)CC1)CCC2` (stereo not drawn) to `COc1ccc2c(c1)CC(CNC(=O)C1CCN(C(=O)Cn3c(=O)sc4ccc(Cl)cc43)CC1)CCC2` (stereo not drawn), the IC50 rises from 0.7 nM to 1.2 nM (1.7-fold). The first is the more potent here.

`COc1ccc2c(c1)C(O)(CNCC1CCN(CCNS(=O)(=O)c3cccc(Cl)c3C)CC1)CCC2` (stereo not drawn) and `COc1ccc2c(c1)C(O)(CNCC1CCN(CCNS(=O)(=O)c3cccc(C)c3)CC1)CCC2` (stereo not drawn) are within 1.5-fold of each other in IC50: 11 nM for the first, 13 nM for the second.

Compared with `COc1ccc2c(c1)C(O)(CNC(=O)C1CCN(C(=O)Cn3c(=O)sc4ccc(Cl)cc43)CC1)CCC2` (stereo not drawn), `COc1ccc2c(c1)C(O)(CNCC1CCN(C(=O)Cn3c(=O)sc4ccc(Cl)cc43)CC1)CCC2` (stereo not drawn) is 28-fold higher in IC50: 1 nM for the first, 28 nM for the second. The first is the more potent here.

`COc1ccc2c(c1)C(O)(CNCC1CCN(CCNS(=O)(=O)c3cccc4ccccc34)CC1)CC2` (stereo not drawn) and `O=C(Nc1nccs1)C1CCN(C(=O)Cn2c(=O)sc3ccc(Cl)cc32)CC1` [FR-73966] are within 1.5-fold of each other in IC50: 66 nM for the first, 53 nM for the second.

Each compound was assayed against T2, Neuropeptide Y receptor type 1 (Homo sapiens, UniProt P25929) (assay: Compound was evaluated for the inhibitory activity against human Neuropeptide Y receptor type 1).
T2 sequence (P25929 whole entry): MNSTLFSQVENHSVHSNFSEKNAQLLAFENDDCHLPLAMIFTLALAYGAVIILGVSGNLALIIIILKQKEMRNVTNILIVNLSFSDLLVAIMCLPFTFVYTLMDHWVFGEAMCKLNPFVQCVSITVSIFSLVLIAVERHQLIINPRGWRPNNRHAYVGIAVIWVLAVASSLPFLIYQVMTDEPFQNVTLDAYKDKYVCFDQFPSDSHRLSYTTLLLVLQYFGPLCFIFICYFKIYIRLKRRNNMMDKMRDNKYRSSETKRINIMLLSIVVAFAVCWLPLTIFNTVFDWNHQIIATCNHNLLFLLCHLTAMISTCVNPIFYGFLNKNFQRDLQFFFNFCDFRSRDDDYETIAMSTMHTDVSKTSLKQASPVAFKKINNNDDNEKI

Compound `COc1ccc2c(c1)CC(NCC1CCN(C(=O)Cn3c(=O)sc4ccc(Cl)cc43)CC1)CCC2` (stereo not drawn) has an IC50 of 12000 nM.

From ChEMBL document CHEMBL1135229, “Novel potent antagonists of human neuropeptide Y Y5 receptors. Part 3: 7-methoxy-1-hydroxy-1-substituted tetraline derivatives” (Bioorg Med Chem Lett, 2002)
